Measured values reported in paper PMC8395040 (International Journal of Molecular Sciences, 2021).

What was measured:
Solubility in water = assay type: physicochemical
tumour cell lines = assay: MTT cytotoxicity assay, summary over the tumour cell line panel; assay type: cell-based, human
Protocol: Cytotoxicity assays were performed by using the MTT reduction method as described previously. Briefly, cancer cell lines were plated in flat-bottom 96-well plates at a cell concentration of 5 × 10^3 cells/well for the fastest growing lines, such as HEK293 and HT29 cells and 1 × 10^4 cells/well for more slowly growing lines, such as HCT116, H1975, BxPC-3, AsPC-1, B16-F10 and DAOY. Then, cells were incubated with the synthesised compounds at different concentrations (from 0.05 to 50 µM) in 200 µL with 10% FBS in RPMI 1640 or DMEM F12 culture medium at 37 °C for 72 h. Later, 10 µL of MTT were added at a final concentration of 0.5 mg/mL, incubated at 37 °C for 4 h, and then solubilised with 10% sodium dodecyl sulphate (SDS) in 0.1 mM HCl and incubated overnight at 37 °C. Formazan formation was measured at 570 nm in a multiwell plate reader (Cytation 5, Biotek Instruments, Winooski, VT, USA). Three independent biological replicates were performed.

HEK293 = assay: Cell cycle analysis (PI, flow cytometry), HEK293; assay type: cell-based, human; conditions: 19 µM, 24 h
Protocol: HT29 and HEK293 cells were plated in 6-well plates at a density of 2.0 × 10^5 cells/1.5 mL/well and grown overnight at 37 °C in a 5% CO2 humidified atmosphere. […] Aliquots of cells were collected, pelleted, washed, and fixed with ethanol (70% v/v) for at least 30 min at 4 °C. Cells were resuspended twice in PBS and, after centrifugation and elimination of the supernatant, they were finally resuspended in a PBS solution containing propidium iodide (PI; […], Invitrogen), RNase A ([…], Invitrogen). After a final incubation for 1 h in the dark at 37 °C, the PI signal was measured using a FACS Canto II Flow-cytometer (BD; Mountain View, CA) with a 488 nm excitation laser, captured and FACS DIVA was used as the acquisition software. The percentage of cells in each phase was analysed using the FCS Express v6 software. Two independent biological replicates were performed.

[1] = tested on: cancer cell lines (HH-dependent and HH-independent); assay: Annexin V-FITC/PI dose-response, cancer cell lines; assay type: cell-based, human; conditions: 1.5–50 µM, 72 h
Protocol: Apoptosis plays a major role in maintaining the homeostasis of cells. Cellular shrinkage and DNA fragmentation at the molecular level are characteristics acquired during apoptosis. Therefore, we performed flow cytometric analysis to determine if 4s could induce apoptosis in tumour cell lines. To this end, 4s-treated cells were stained with Annexin V-FITC and/or PI and analysed by flow cytometry. Dose–response effects were assessed using 4s at concentrations under 50 µM (1.5, 3.0, 6.25, 19, 25 and 50 µM) for 72 h.
Supplemental Figure S1: 4s triggers apoptosis in various cancer cell lines. A)
Dose-response curves are shown for four neoplastic cancer cell lines and HEK293 cells as a control. Cells were treated with 4s […]
stained with annexin V-FITC and propidium iodide (PI) and analyzed by flow cytometry.
Results are presented as the mean ± SD of three independent experiments. (***) p <
0.0001 vs. control. Data were analyzed with a non-parametric t-test. B) Representative dot plot of HT29 cells untreated (control) or treated for 3 h with 4s (19 µM ). […]

[2] = tested on: Gli1 mRNA in Ptch1−/− mouse embryonic fibroblasts; assay: Gli1 mRNA (qRT-PCR) in Ptch1−/− MEFs; assay type: cell-based; conditions: increasing concentrations, 24 h
Protocol: HEK293T and Smo^−/−, Ptch^−/− MEFs cells were cultured in DMEM plus 10% FBS, 1% L-glutamine and antibiotics. Transient transfections were performed using DreamFectTM Gold transfection reagent (Oz Biosciences SAS, Marseille, France) following the manufacturer’s instructions and for varying periods of time depending on the experiment (24–72 h). […] Vehicle (DMSO) was used as control.
Total RNA was isolated with Trizol (Invitrogen/Life Technologies, Carlsbad, CA, USA) from Smo^−/− MEFs, Ptch^−/− MEFs or HT29 cells treated for 24 h and/or 48 h with 4s at different concentrations and reverse transcribed with the SensiFAST cDNA Synthesis Kit (Bioline Reagents Limited, London, UK). Quantitative real-time PCR (Q-PCR) analysis of Gli1 and housekeeping (HPRT, TBP, HMBS) mRNA levels was performed on each cDNA sample using the VIIA7 Real Time PCR System employing Assay-on-Demand Reagents (Life Technologies) as previously described. […] Each amplification reaction was performed in triplicate, the average of the three threshold cycles was used to calculate the amount of transcript in the sample (using SDS version 2.3 Software). mRNA quantification was expressed in arbitrary units as the ratio of the sample quantity to the quantity of the calibrator (ΔCt method). […]

[3] = tested on: Gli1 mRNA in WT MEFs stimulated with SAG; assay: Gli1 mRNA (qRT-PCR) in SAG-stimulated WT MEFs; assay type: cell-based, mouse; conditions: 10 µM, SAG 200 nM, 24 h
human WT SMO = biological target: T1, human WT SMO (Homo sapiens, UniProt Q99835); assay: BODIPY-cyclopamine displacement assay, WT SMO; conditions: HEK293T transfected with WT SMO, BC 5 nM; read-out: IC50 for binding to WT SMO (BC displacement)
T1 construct: Myc-DDK; expressed in transfected cells; host or cells: HEK293T
T1 sequence (Q99835 28-787): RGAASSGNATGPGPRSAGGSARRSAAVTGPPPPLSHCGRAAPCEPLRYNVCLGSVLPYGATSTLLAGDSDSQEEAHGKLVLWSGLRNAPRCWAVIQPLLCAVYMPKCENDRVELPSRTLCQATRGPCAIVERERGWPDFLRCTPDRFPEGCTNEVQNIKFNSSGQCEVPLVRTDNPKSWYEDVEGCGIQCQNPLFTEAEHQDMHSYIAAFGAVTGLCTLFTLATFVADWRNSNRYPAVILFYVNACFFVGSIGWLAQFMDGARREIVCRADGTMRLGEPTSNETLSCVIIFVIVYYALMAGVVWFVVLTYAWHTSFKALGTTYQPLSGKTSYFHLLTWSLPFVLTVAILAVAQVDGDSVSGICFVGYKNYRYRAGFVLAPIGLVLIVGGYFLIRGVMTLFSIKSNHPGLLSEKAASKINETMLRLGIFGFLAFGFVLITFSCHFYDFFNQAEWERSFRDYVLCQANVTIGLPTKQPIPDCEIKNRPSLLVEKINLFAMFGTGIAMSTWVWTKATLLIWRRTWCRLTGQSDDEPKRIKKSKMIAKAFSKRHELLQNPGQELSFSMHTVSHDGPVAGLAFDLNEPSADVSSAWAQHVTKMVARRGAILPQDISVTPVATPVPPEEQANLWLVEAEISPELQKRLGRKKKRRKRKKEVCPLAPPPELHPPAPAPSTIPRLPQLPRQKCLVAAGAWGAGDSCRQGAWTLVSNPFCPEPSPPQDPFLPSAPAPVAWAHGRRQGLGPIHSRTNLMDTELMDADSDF
Protocol: HEK293T cells were transfected with genes encoding human WT SMO tagged with Myc-DDK or human SMO D473H mutant tagged with Myc. Cells were washed in PBS supplemented with 0.5% FBS, fixed in 4% paraformaldehyde in PBS for 10 min, and incubated for 6 h at 37 °C in the same medium supplemented with BODIPY-cyclopamine (5 nM), with and without 4s at different concentrations ([…]). The cells were permeabilised with 0.2% Triton X-100 (Sigma, St. Louis, MO, USA). Dako Fluorescent Mounting solution (Dako, Carpinteria, CA, USA) was used as mounting medium and the Hoechst reagent for staining of cell nuclei. BODIPY (green) and Hoechst (blue) signals were analysed in three representative fields per coverslip (×20 magnification). Data were expressed as the percentage of BC incorporation observed with BC alone.

pancreatic cancer cells = tested on: pancreatic cancer cells; design: method as in PMID 28490735; conditions: cited from earlier work

Row | Compound | solubility in water (Solubility in water) | selectivity for cancer cells compared to HEK293 control cells (tumour cell lines) [times] | cytotoxicity in tumour cell lines (tumour cell lines; 50 µM, 72 h, MTT, tumour cell lines tested) | IC50 (tumour cell lines; Homo sapiens, depending on the tumour cell line, 72 h, read-out: IC50 range over tumour cell lines) [µM] | fold increase in cytotoxicity compared to vismodegib (tumour cell lines; from IC50 values) [fold] | changes in cell cycle, HEK293 (HEK293) | induction of apoptosis [1] | GLI1 mRNA levels in Ptch1−/− MEFs [2] | Gli-1 expression in WT MEF cells stimulated with SAG [3] | IC50 (human WT SMO) [µM] | concentration inducing apoptosis in pancreatic cancer cells (pancreatic cancer cells)
1 | CCCCCCn1cnc2c(-c3ccc(OC(F)(F)F)cc3)nc(N3CCN(c4ccncc4)CC3)nc21 [Compound 4s, 9-Hexyl-2-(4-(pyridin-4-yl)piperazin-1-yl)-6-(4-(trifluoromethoxy)phenyl)-9H-purine] | poor | 40 | more than 80% | 1.3 to 15 | ~40 | did not observe any changes | induced apoptosis in a dose-dependent manner | significantly reduced mRNA levels of GLI1 | inhibited Gli-1 expression | 0.95 | –
2 | CS(=O)(=O)c1ccc(C(=O)Nc2ccc(Cl)c(-c3ccccn3)c2)c(Cl)c1 [Vismodegib, reference compound] | – | – | – | – | – | – | – | – | – | – | greater than 100 µM
